Results: patent US20240132431A1, “METHOD FOR ALKYLATING ACIDIC FUNCTIONAL GROUP” (Chugai Seiyaku Kabushiki Kaisha, priority 2021, published 2024)

Target: T1, Bcl-2 protein (Recombinant Human Bcl-2 Protein) (Homo sapiens, UniProt P10415)
T1 construct: purchased Novus NBP2-34889
Test: Binding evaluation of mixture library compounds to Bcl-2 using AS-MS (affinity selection mass spectrometry)
Details: AS-MS, mixture of 1200 compounds, Bcl-2, ASMS Ratio(%)=(A−C)/B×100; for ASMS ratio (%) n = 1: replicate n = 1; for ASMS ratio (%) n = 2: replicate n = 2
How it was run: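 Bcl-2 binding is scored from LC/MS signal retained with protein through gel-filtration spin columns, normalised to unfiltered and protein-free controls. Incubation: 20 μM protein, […] per compound, 1 h, 23° C.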

T1 sequence (P10415 whole entry): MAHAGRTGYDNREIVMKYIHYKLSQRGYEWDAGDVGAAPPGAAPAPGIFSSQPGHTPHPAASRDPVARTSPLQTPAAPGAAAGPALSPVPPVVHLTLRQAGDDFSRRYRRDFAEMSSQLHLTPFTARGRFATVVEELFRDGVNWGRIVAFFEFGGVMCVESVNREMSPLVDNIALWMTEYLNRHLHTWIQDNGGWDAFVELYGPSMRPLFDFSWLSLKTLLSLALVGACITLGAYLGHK

SMILES | ASMS ratio (%) n = 1 [%] | ASMS ratio (%) n = 2 [%]
CCOc1cncc(-c2csc(C(=O)N3CCN(c4ccc(C(=O)NCC56CC7CC(CC(C7)C5)C6)cc4)CC3)c2)c1 [B1A024-01, N-(1-Adamantylmethyl)-4-[4-[4-(5-ethoxypyridin-3-yl)thiophene-2-carbonyl]piperazin-1-yl]benzamide] | 4.1 | 1.2
CCOc1cccc(-c2ccc(C(=O)N3CCN(c4ccc(C(=O)NCC56CC7CC(CC(C7)C5)C6)cc4)CC3)cc2C)c1 [B1A025-01, N-(1-Adamantylmethyl)-4-[4-[4-(3-ethoxyphenyl)-3-methylbenzoyl]piperazin-1-yl]benzamide] | 7.4 | −16.1
CCOc1cncc(-c2ccc(C(=O)N3CCN(c4ccc(C(=O)NCC56CC7CC(CC(C7)C5)C6)cc4)CC3)cc2C)c1 [B1A026-01, N-(1-Adamantylmethyl)-4-[4-[4-(5-ethoxypyridin-3-yl)-3-methylbenzoyl]piperazin-1-yl]benzamide] | 3.0 | −2.9
CCOc1cccc(-c2ccc(C(=O)N3CCN(c4ccc(C(=O)NCC56CC7CC(CC(C7)C5)C6)cc4)CC3)cc2F)c1 [B1A027-01, N-(1-Adamantylmethyl)-4-[4-[4-(3-ethoxyphenyl)-3-fluorobenzoyl]piperazin-1-yl]benzamide] | 6.7 | −7.8
CCOc1cncc(-c2ccc(C(=O)N3CCN(c4ccc(C(=O)NCC56CC7CC(CC(C7)C5)C6)cc4)CC3)cc2F)c1 [B1A028-01, N-(1-Adamantylmethyl)-4-[4-[4-(5-ethoxypyridin-3-yl)-3-fluorobenzoyl]piperazin-1-yl]benzamide] | −1.6 | −4.7
CCOc1cccc(C#Cc2ccccc2C(=O)N2CCN(c3ccc(C(=O)NCC45CC6CC(CC(C6)C4)C5)cc3)CC2)c1 [B1A029-01, N-(1-Adamantylmethyl)-4-[4-[2-[2-(3-ethoxyphenyl)ethynyl]benzoyl]piperazin-1-yl]benzamide] | −22.3 | −13.0
CCOc1cncc(C#Cc2ccccc2C(=O)N2CCN(c3ccc(C(=O)NCC45CC6CC(CC(C6)C4)C5)cc3)CC2)c1 [B1A030-01, N-(1-Adamantylmethyl)-4-[4-[2-[2-(5-ethoxypyridin-3-yl)ethynyl]benzoyl]piperazin-1-yl]benzamide] | 6.9 | −1.8
CCOc1cccc(C#Cc2cncc(C(=O)N3CCN(c4ccc(C(=O)NCC56CC7CC(CC(C7)C5)C6)cc4)CC3)c2)c1 [B1A031-01, N-(1-Adamantylmethyl)-4-[4-[5-[2-(3-ethoxyphenyl)ethynyl]pyridine-3-carbonyl]piperazin-1-yl]benzamide] | 6.9 | −1.8
CCOc1cncc(C#Cc2cncc(C(=O)N3CCN(c4ccc(C(=O)NCC56CC7CC(CC(C7)C5)C6)cc4)CC3)c2)c1 [B1A032-01, N-(1-Adamantylmethyl)-4-[4-[5-[2-(5-ethoxypyridin-3-yl)ethynyl]pyridine-3-carbonyl]piperazin-1-yl]benzamide] | 0.0 | −9.1
CCOc1cccc(-c2ccccc2CCC(=O)N2CCN(c3ccc(C(=O)NCC45CC6CC(CC(C6)C4)C5)cc3)CC2)c1 [B1A033-01, N-(1-Adamantylmethyl)-4-[4-[3-[2-(3-ethoxyphenyl)phenyl]propanoyl]piperazin-1-yl]benzamide] | 3.3 | −13.3
CCOc1cncc(-c2ccccc2CCC(=O)N2CCN(c3ccc(C(=O)NCC45CC6CC(CC(C6)C4)C5)cc3)CC2)c1 [B1A034-01, N-(1-Adamantylmethyl)-4-[4-[3-[2-(5-ethoxypyridin-3-yl)phenyl]propanoyl]piperazin-1-yl]benzamide] | 5.2 | −3.2
CCOc1cccc(-c2ccc(C(=O)N3CCN(c4ccc(C(=O)NCC56CC7CC(CC(C7)C5)C6)cc4)CC3)c3ccccc23)c1 [B1A035-01, N-(1-Adamantylmethyl)-4-[4-[4-(3-ethoxyphenyl)naphthalene-1-carbonyl]piperazin-1-yl]benzamide] | 14.9 | −7.0
CCOc1cncc(-c2ccc(C(=O)N3CCN(c4ccc(C(=O)NCC56CC7CC(CC(C7)C5)C6)cc4)CC3)c3ccccc23)c1 [B1A036-01, N-(1-Adamantylmethyl)-4-[4-[4-(5-ethoxypyridin-3-yl)naphthalene-1-carbonyl]piperazin-1-yl]benzamide] | 0.4 | 3.1
CCOc1cccc(-c2cc(C(=O)N3CCN(c4ccc(C(=O)NCC56CC7CC(CC(C7)C5)C6)cc4)CC3)cc(C(C)(C)C)c2)c1 [B1A037-01, N-(1-Adamantylmethyl)-4-[4-[3-tert-butyl-5-(3-ethoxyphenyl)benzoyl]piperazin-1-yl]benzamide] | 3.3 | −5.0
CCOc1cncc(-c2cc(C(=O)N3CCN(c4ccc(C(=O)NCC56CC7CC(CC(C7)C5)C6)cc4)CC3)cc(C(C)(C)C)c2)c1 [B1A038-01, N-(1-Adamantylmethyl)-4-[4-[3-tert-butyl-5-(5-ethoxypyridin-3-yl)benzoyl]piperazin-1-yl]benzamide] | 6.5 | −6.4
CCOc1cccc(-c2cc(C(=O)N3CCN(c4ccc(C(=O)NCC56CC7CC(CC(C7)C5)C6)cc4)CC3)cc(C(F)(F)F)c2)c1 [B1A039-01, N-(1-Adamantylmethyl)-4-[4-[3-(3-ethoxyphenyl)-5-(trifluoromethyl)benzoyl]piperazin-1-yl]benzamide] | 6.3 | −8.4
CCOc1cncc(-c2cc(C(=O)N3CCN(c4ccc(C(=O)NCC56CC7CC(CC(C7)C5)C6)cc4)CC3)cc(C(F)(F)F)c2)c1 [B1A040-01, N-(1-Adamantylmethyl)-4-[4-[3-(5-ethoxypyridin-3-yl)-5-(trifluoromethyl)benzoyl]piperazin-1-yl]benzamide] | 10.4 | 8.4
CCOc1cccc(C#Cc2cc(C(=O)N3CCN(c4ccc(C(=O)NCC56CC7CC(CC(C7)C5)C6)cc4)CC3)cc(C(F)(F)F)c2)c1 [B1A041-01, N-(1-Adamantylmethyl)-4-[4-[3-[2-(3-ethoxyphenyl)ethynyl]-5-(trifluoromethyl)benzoyl]piperazin-1-yl]benzamide] | −2.4 | −4.0
CCOc1cncc(C#Cc2cc(C(=O)N3CCN(c4ccc(C(=O)NCC56CC7CC(CC(C7)C5)C6)cc4)CC3)cc(C(F)(F)F)c2)c1 [B1A042-01, N-(1-Adamantylmethyl)-4-[4-[3-[2-(5-ethoxypyridin-3-yl)ethynyl]-5-(trifluoromethyl)benzoyl]piperazin-1-yl]benzamide] | 12.5 | −8.5
CCOc1cccc(-c2cnn(-c3cc(C(=O)N4CCN(c5ccc(C(=O)NCC67CC8CC(CC(C8)C6)C7)cc5)CC4)cc(C(F)(F)F)c3)c2)c1 [B1A043-01, N-(1-Adamantylmethyl)-4-[4-[3-[4-(3-ethoxyphenyl)pyrazol-1-yl]-5-(trifluoromethyl)benzoyl]piperazin-1-yl]benzamide] | 3.8 | −2.9
CCOc1cncc(-c2cnn(-c3cc(C(=O)N4CCN(c5ccc(C(=O)NCC67CC8CC(CC(C8)C6)C7)cc5)CC4)cc(C(F)(F)F)c3)c2)c1 [B1A044-01, N-(1-Adamantylmethyl)-4-[4-[3-[4-(5-ethoxypyridin-3-yl)pyrazol-1-yl]-5-(trifluoromethyl)benzoyl]piperazin-1-yl]benzamide] | 2.6 | −1.9
CCOc1cccc(-c2ccccc2CN2CCN(c3ccc(C(=O)NCC45CC6CC(CC(C6)C4)C5)cc3)CC2)c1 [B1A045-01, N-(1-Adamantylmethyl)-4-[4-[[2-(3-ethoxyphenyl)phenyl]methyl]piperazin-1-yl]benzamide] | 1.1 | −2.2
CCOc1cncc(-c2ccccc2CN2CCN(c3ccc(C(=O)NCC45CC6CC(CC(C6)C4)C5)cc3)CC2)c1 [B1A046-01, N-(1-Adamantylmethyl)-4-[4-[[2-(5-ethoxypyridin-3-yl)phenyl]methyl]piperazin-1-yl]benzamide] | 0.0 | 0.0
CCOc1cccc(-c2ccc(CN3CCN(c4ccc(C(=O)NCC56CC7CC(CC(C7)C5)C6)cc4)CC3)cc2C)c1 [B1A047-01, N-(1-Adamantylmethyl)-4-[4-[[4-(3-ethoxyphenyl)-3-methylphenyl]methyl]piperazin-1-yl]benzamide] | 3.2 | 2.5
CCOc1cncc(-c2ccc(CN3CCN(c4ccc(C(=O)NCC56CC7CC(CC(C7)C5)C6)cc4)CC3)cc2C)c1 [B1A048-01, N-(1-Adamantylmethyl)-4-[4-[[4-(5-ethoxypyridin-3-yl)-3-methylphenyl]methyl]piperazin-1-yl]benzamide] | 1.5 | 3.6
CCOc1cccc(-c2ccc(CN3CCN(c4ccc(C(=O)NCC56CC7CC(CC(C7)C5)C6)cc4)CC3)c(CC)c2)c1 [B1A049-01, N-(1-Adamantylmethyl)-4-[4-[[4-(3-ethoxyphenyl)-2-ethylphenyl]methyl]piperazin-1-yl]benzamide] | 4.1 | −9.1
CCOc1cncc(-c2ccc(CN3CCN(c4ccc(C(=O)NCC56CC7CC(CC(C7)C5)C6)cc4)CC3)c(CC)c2)c1 [B1A050-01, N-(1-Adamantylmethyl)-4-[4-[[4-(5-ethoxypyridin-3-yl)-2-ethylphenyl]methyl]piperazin-1-yl]benzamide] | 0.6 | 3.0
